Source: ChEMBL document CHEMBL1909046, “DrugMatrix in vitro pharmacology data”
Where a SMILES comes first, the peptide text is derived from it. Bridges are numbered along the chain shown (N, C = ends). [ ]: non-standard residue; d: D form. The star is where a group is joined. Ileψ(thiazoline)Cys = CC[C@H](C)[C@H](N)C1=N[C@H](C(=O)*)CS1; dOrn = NCCC[C@@H](N)C(=O)O

What was measured:
[1] = target: T1, Alpha-1D adrenergic receptor (Homo sapiens, UniProt P25100); format: cell membranes, HEK293, Membrane; conditions: hek293; also: in other assays of this panel Not Active means under 50% inhibition at 10 µM
T1 sequence (P25100 whole entry): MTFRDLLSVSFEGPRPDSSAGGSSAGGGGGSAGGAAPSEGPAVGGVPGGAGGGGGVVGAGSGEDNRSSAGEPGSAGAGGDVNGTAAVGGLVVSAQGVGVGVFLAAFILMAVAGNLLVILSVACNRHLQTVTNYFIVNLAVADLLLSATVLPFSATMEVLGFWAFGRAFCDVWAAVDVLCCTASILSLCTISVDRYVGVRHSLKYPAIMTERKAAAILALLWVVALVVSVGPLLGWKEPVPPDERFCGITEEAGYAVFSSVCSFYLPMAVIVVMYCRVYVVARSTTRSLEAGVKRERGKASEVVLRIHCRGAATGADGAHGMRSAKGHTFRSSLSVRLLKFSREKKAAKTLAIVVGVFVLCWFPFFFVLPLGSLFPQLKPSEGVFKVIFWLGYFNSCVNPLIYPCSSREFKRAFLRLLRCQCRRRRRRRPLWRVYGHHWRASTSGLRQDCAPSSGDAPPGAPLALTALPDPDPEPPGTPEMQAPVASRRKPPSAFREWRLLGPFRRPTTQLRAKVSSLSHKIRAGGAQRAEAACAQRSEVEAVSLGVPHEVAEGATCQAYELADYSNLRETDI

[2] = DRUGMATRIX: Atrial Natriuretic Factor (ANF) radioligand binding (ligand: [125I] ANF (rat)); format: cell membranes, Cavia porcellus, Dunkin-Hartley, Adrenal gland, Membrane; conditions: Not Active = under 50% inhibition at 10 µM
[3] = DRUGMATRIX: Calcium Channel Type L, Dihydropyridine radioligand binding (ligand: [3H] Nitrendipine); format: cell membranes, Rattus norvegicus, Wistar, Cerebral cortex, Membrane; conditions: Not Active = under 50% inhibition at 10 µM
[4] = target: T2, 5-hydroxytryptamine receptor 2C (Homo sapiens, UniProt P28335); assay: DRUGMATRIX: Serotonin (5-Hydroxytryptamine) 5-HT2C radioligand binding (ligand: [3H] Mesulergine); format: cell membranes, CHO-K1, Membrane; conditions: cho-k1; Not Active = under 50% inhibition at 10 µM
T2 sequence (P28335 whole entry): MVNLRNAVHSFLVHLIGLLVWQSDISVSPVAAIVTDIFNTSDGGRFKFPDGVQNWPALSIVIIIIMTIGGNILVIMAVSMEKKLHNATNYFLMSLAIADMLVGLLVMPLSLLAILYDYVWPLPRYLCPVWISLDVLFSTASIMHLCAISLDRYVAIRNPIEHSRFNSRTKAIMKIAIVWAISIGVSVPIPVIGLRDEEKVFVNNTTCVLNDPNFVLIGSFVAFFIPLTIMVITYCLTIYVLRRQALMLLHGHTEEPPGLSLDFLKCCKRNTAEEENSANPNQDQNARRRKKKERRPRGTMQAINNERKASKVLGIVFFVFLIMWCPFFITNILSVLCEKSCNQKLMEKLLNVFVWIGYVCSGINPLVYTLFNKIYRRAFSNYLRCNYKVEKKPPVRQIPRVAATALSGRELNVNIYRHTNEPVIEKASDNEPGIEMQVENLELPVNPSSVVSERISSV

[5] = target: Sigma non-opioid intracellular receptor 1 (Homo sapiens, UniProt Q99720); assay: DRUGMATRIX: Sigma1 radioligand binding (ligand: [3H] Haloperidol); format: cell membranes, Jurkat, Membrane; conditions: Not Active = under 50% inhibition at 10 µM
Vasopressin V1a receptor = Vasopressin V1a receptor (Homo sapiens, UniProt P37288); format: cell membranes, Membrane; conditions: hek293; also: in other assays of this panel Not Active means under 50% inhibition at 10 µM
[6] = DRUGMATRIX: Calcium Channel Type L, Phenylalkylamine radioligand binding (ligand: [3H] (-)-Desmethoxyverapamil (D-888)); format: cell membranes, Rattus norvegicus, Wistar, Brain, Membrane; conditions: Not Active = under 50% inhibition at 10 µM
[7] = target: C-C chemokine receptor type 2 (Homo sapiens, UniProt P41597); format: cell membranes, CHO-K1, Membrane; conditions: cho-k1; also: in other assays of this panel Not Active means under 50% inhibition at 10 µM
[8] = target: Prostaglandin G/H synthase 1 (Homo sapiens, UniProt P23219); assay: biochemical; format: tissue-based, Platelet; conditions: platelet;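 also: inhibition of COX-1 enzyme activity, with arachidonic acid supplied as substrate; in other assays of this panel Not Active means under 50% inhibition at 10 µM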
[9] = target: T3, Neuropeptide Y receptor type 1 (Homo sapiens, UniProt P25929); format: cell membranes, Membrane; conditions: sk-n-mc; also: in other assays of this panel Not Active means under 50% inhibition at 10 µM
T3 sequence (P25929 whole entry): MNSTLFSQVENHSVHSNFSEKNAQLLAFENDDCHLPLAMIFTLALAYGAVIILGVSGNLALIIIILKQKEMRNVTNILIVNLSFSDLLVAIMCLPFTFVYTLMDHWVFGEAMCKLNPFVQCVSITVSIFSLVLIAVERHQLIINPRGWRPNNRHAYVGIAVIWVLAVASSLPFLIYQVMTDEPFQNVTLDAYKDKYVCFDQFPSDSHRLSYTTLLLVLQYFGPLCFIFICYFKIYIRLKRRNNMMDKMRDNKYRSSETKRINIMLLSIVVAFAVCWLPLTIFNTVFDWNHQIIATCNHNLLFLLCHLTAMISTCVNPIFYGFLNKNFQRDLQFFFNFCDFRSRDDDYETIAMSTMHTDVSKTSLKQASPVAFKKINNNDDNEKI

Progesterone receptor = target: T4, Progesterone receptor (Bos taurus, UniProt Q690N0); assay: DRUGMATRIX: Progesterone radioligand binding (ligand: [3H] R-5020); format: tissue-based, Uterus; conditions: Not Active = under 50% inhibition at 10 µM
T4 sequence (Q690N0 whole entry): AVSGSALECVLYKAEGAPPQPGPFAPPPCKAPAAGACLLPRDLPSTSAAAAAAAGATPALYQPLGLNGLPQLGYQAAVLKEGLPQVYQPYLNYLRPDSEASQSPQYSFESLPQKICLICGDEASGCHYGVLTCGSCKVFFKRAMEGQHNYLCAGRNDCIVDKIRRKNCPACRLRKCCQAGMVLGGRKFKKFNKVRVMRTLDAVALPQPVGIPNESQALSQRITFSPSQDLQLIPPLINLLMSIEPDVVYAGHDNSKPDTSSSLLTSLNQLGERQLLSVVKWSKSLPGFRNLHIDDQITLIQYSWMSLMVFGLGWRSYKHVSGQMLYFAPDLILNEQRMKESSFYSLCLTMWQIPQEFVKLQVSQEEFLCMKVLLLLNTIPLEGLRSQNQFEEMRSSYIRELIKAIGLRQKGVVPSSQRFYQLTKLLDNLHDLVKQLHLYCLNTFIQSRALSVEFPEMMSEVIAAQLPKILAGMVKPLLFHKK

[10] = target: Mitogen-activated protein kinase 1 (Homo sapiens, UniProt P28482); assay: DRUGMATRIX: Protein Serine/Threonine Kinase, ERK2 enzyme inhibition (substrate: Myelin Basic Protein); set-up: species or system Escherichia coli; conditions: Not Active = under 50% inhibition at 10 µM
Cytochrome P450 2C19 = Cytochrome P450 2C19 (Homo sapiens, UniProt P33261); conditions: bti-tn-5b1-4; also: in other assays of this panel Not Active means under 50% inhibition at 10 µM
Chain of Cytochrome P450 2C19 (P33261 whole entry): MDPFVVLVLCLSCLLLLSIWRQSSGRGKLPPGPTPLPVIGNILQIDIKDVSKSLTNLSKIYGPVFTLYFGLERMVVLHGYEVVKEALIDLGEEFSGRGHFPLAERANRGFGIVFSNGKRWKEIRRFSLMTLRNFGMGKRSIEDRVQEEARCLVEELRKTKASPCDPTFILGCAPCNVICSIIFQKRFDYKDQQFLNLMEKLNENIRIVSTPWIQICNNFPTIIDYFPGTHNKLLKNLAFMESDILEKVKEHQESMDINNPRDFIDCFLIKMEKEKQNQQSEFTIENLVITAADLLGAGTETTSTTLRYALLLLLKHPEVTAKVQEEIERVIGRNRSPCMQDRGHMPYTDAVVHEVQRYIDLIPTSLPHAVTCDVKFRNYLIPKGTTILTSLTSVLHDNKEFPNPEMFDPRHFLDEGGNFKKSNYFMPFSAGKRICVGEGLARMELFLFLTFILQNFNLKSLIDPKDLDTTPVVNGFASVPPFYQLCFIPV

Chain of Mitogen-activated protein kinase 1 (P28482 whole entry): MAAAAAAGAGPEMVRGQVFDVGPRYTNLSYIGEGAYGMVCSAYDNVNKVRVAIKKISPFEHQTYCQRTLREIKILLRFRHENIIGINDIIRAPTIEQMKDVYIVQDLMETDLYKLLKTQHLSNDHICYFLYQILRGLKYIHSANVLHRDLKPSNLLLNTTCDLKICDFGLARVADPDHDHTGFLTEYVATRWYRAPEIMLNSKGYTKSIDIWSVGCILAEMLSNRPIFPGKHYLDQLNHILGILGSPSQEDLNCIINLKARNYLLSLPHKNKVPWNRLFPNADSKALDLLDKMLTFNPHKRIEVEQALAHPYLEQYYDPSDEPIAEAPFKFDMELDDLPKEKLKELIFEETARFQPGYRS
Chain of Sigma non-opioid intracellular receptor 1 (Q99720 whole entry): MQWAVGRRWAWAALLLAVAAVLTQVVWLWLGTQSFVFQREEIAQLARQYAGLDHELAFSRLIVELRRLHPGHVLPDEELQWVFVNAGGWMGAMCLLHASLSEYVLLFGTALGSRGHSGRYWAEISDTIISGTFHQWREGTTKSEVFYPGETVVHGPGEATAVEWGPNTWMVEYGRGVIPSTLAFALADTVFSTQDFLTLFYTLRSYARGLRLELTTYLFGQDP
Chain of Vasopressin V1a receptor (P37288 whole entry): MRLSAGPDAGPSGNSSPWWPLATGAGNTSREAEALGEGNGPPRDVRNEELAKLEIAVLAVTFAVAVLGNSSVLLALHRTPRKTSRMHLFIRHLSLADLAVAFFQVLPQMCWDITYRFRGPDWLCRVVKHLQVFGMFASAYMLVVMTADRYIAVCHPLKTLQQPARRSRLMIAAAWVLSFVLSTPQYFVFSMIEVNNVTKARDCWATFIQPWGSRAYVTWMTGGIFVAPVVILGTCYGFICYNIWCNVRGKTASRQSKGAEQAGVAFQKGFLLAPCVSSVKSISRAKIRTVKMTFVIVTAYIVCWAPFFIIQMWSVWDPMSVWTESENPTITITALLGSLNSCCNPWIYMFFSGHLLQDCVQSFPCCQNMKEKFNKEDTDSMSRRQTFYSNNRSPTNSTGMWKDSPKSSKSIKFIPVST
Chain of Prostaglandin G/H synthase 1 (P23219 whole entry): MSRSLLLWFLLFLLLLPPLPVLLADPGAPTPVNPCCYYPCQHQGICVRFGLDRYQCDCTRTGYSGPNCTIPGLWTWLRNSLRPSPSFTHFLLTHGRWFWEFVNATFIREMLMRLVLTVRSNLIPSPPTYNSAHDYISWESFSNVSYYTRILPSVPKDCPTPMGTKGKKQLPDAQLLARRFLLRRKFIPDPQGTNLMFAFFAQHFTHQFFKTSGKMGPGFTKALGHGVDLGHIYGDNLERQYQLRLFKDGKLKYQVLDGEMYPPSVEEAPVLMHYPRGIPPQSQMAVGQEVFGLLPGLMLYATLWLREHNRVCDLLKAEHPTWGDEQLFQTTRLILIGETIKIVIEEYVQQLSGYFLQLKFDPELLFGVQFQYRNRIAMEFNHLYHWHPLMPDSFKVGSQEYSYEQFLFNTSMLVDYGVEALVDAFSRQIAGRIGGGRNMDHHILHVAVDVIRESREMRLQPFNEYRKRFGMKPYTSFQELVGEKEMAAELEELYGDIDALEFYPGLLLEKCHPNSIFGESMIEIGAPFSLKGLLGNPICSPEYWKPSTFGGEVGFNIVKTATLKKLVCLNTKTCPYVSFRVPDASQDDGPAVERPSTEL
Chain of C-C chemokine receptor type 2 (P41597 whole entry): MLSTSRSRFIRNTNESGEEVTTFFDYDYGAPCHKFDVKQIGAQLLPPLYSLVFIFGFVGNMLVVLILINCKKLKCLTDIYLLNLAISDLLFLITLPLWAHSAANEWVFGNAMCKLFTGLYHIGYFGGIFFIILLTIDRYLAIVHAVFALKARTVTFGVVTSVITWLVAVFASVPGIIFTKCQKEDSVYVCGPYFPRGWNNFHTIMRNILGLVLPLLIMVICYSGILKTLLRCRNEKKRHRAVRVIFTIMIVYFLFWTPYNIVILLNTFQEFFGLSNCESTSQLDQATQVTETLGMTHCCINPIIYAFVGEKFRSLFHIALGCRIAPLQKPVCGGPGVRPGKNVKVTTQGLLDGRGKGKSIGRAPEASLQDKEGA

CCCC[C@@H](CC)COC(=O)c1ccccc1C(=O)OC[C@@H](CC)CCCC [BIS(2-ETHYLHEXYL)PHTHALATE]
IC50 [1]: Not Active
IC50 [2]: Not Active
Ki [2]: Not Active
IC50 [3]: Not Active
Ki [3]: Not Active
IC50 [4]: Not Active
IC50 ([5]; jurkat): Not Active
IC50 (Vasopressin V1a receptor): Not Active
IC50 [6]: Not Active
Ki [6]: Not Active
IC50 [7]: Not Active
IC50 [8]: Not Active
IC50 [9]: Not Active
IC50 (Progesterone receptor): Not Active
IC50 [10]: Not Active
IC50 (Cytochrome P450 2C19): Not Active
Ki (Cytochrome P450 2C19): Not Active

CC[N+](CC)(CC)CCOc1cccc(OCC[N+](CC)(CC)CC)c1OCC[N+](CC)(CC)CC.[I-].[I-].[I-] [GALLAMINE TRIETHIODIDE]
IC50 [1]: Not Active
IC50 [2]: Not Active
Ki [2]: Not Active
IC50 [3]: Not Active
Ki [3]: Not Active
IC50 [4]: Not Active
IC50 ([5]; jurkat): Not Active
IC50 (Vasopressin V1a receptor): Not Active
IC50 [6]: Not Active
Ki [6]: Not Active
IC50 [7]: Not Active
IC50 [8]: Not Active
IC50 [9]: Not Active
IC50 (Progesterone receptor): Not Active
IC50 [10]: Not Active
IC50 (Cytochrome P450 2C19): Not Active
Ki (Cytochrome P450 2C19): Not Active

CN(C)[C@@H]1C(O)=C(C(N)=O)C(=O)[C@@]2(O)C(O)=C3C(=O)c4c(O)cccc4[C@@](C)(O)[C@H]3[C@H](O)[C@@H]12 [OXYTETRACYCLINE]
IC50 [1]: Not Active
IC50 [2]: Not Active
Ki [2]: Not Active
IC50 [3]: Not Active
Ki [3]: Not Active
IC50 [4]: Not Active
IC50 ([5]; jurkat): Not Active
IC50 (Vasopressin V1a receptor): Not Active
IC50 [6]: Not Active
Ki [6]: Not Active
IC50 [7]: Not Active
IC50 [8]: Not Active
IC50 [9]: Not Active
IC50 (Progesterone receptor): Not Active
IC50 [10]: Not Active
IC50 (Cytochrome P450 2C19): Not Active
Ki (Cytochrome P450 2C19): Not Active

NS(=O)(=O)c1cc2c(cc1Cl)NCNS2(=O)=O [HYDROCHLOROTHIAZIDE]
IC50 [1]: Not Active
IC50 [2]: Not Active
Ki [2]: Not Active
IC50 [3]: Not Active
Ki [3]: Not Active
IC50 [4]: Not Active
IC50 ([5]; jurkat): Not Active
IC50 (Vasopressin V1a receptor): Not Active
IC50 [6]: Not Active
Ki [6]: Not Active
IC50 [7]: Not Active
IC50 [8]: Not Active
IC50 [9]: Not Active
IC50 (Progesterone receptor): Not Active
IC50 [10]: Not Active
IC50 (Cytochrome P450 2C19): Not Active
Ki (Cytochrome P450 2C19): Not Active

CC[C@H](C)[C@H](N)C1=N[C@H](C(=O)N[C@@H](CC(C)C)C(=O)N[C@H](CCC(=O)O)C(=O)N[C@H](C(=O)N[C@H]2CCCCNC(=O)[C@H](CC(N)=O)NC(=O)[C@@H](CC(=O)O)NC(=O)[C@H](Cc3cnc[nH]3)NC(=O)[C@@H](Cc3ccccc3)NC(=O)[C@H]([C@@H](C)CC)NC(=O)[C@@H](CCCN)NC2=O)[C@@H](C)CC)CS1 [BACITRACIN] ({Ileψ(thiazoline)Cys}-L[dE]IK[dOrn]I[dF]H[dD]N; lactam 4-C)
IC50 [1]: Not Active
IC50 [2]: Not Active
Ki [2]: Not Active
IC50 [3]: Not Active
Ki [3]: Not Active
IC50 [4]: Not Active
IC50 ([5]; jurkat): Not Active
IC50 (Vasopressin V1a receptor): Not Active
IC50 [6]: Not Active
Ki [6]: Not Active
IC50 [7]: Not Active
IC50 [8]: Not Active
IC50 [9]: Not Active
IC50 (Progesterone receptor): Not Active
IC50 [10]: Not Active
IC50 (Cytochrome P450 2C19): Not Active
Ki (Cytochrome P450 2C19): Not Active

Fc1ccc([C@@H]2CCNC[C@H]2COc2ccc3c(c2)OCO3)cc1 [PAROXETINE]
IC50 [1]: Not Active
IC50 [2]: Not Active
Ki [2]: Not Active
IC50 ([3]; read-out: IC50): 1480 nM
Ki ([3]; read-out: Ki): 949 nM
IC50 [4]: Not Active
IC50 ([5]; read-out: IC50): 5370 nM
Ki ([5]; read-out: Ki): 2260 nM
IC50 (Vasopressin V1a receptor): Not Active
IC50 ([6]; read-out: IC50): 747 nM
Ki ([6]; read-out: Ki): 726 nM
IC50 [7]: Not Active
IC50 [8]: Not Active
IC50 [9]: Not Active
IC50 (Progesterone receptor): Not Active
IC50 [10]: Not Active
IC50 (Cytochrome P450 2C19): Not Active
Ki (Cytochrome P450 2C19): Not Active

GOLD SODIUM THIOMALATE
IC50 [1]: Not Active
Ki [1]: Not Active
IC50 [2]: Not Active
Ki [2]: Not Active
IC50 [3]: Not Active
Ki [3]: Not Active
IC50 [4]: Not Active
Ki [4]: Not Active
IC50 ([5]; jurkat): Not Active
Ki ([5]; jurkat): Not Active
IC50 (Vasopressin V1a receptor): Not Active
Ki (Vasopressin V1a receptor): Not Active
IC50 [6]: Not Active
Ki [6]: Not Active
IC50 [7]: Not Active
Ki [7]: Not Active
IC50 [8]: Not Active
Ki [8]: Not Active
IC50 [9]: Not Active
Ki [9]: Not Active
IC50 (Progesterone receptor): Not Active
Ki (Progesterone receptor): Not Active
IC50 [10]: Not Active
Ki [10]: Not Active
IC50 (Cytochrome P450 2C19): Not Active
Ki (Cytochrome P450 2C19): Not Active
